What was measured:
Format in all cases: in vivo
[1] = tested on: Plutella xylostella, normally sensitive strain; test: Plutella xylostella test (normally sensitive strain)
Protocol: (§1) To produce a suitable preparation of active compound, 1 part by weight of active compound is mixed with the stated amounts of solvent and emulsifier, and the concentrate is diluted with emulsifier-containing water to the desired concentration.
Cabbage leaves (Brassica oleracea) are treated by being dipped into the preparation of active compound of the desired concentration and are populated with caterpillars of the diamondback moth (Plutella xylostella, normally sensitive strain) while the leaves are still moist.
(§2) After the desired period of time, the kill in % is determined. 100% means that all caterpillars have been killed; 0% means that none of the caterpillars have been killed. The determined kill ratios are entered into Colby's formula (see page 39).

[2] = tested on: Plutella xylostella, resistant strain; test: Plutella xylostella test (resistant strain)
Protocol: as §1
Cabbage leaves (Brassica oleracea) are treated by being dipped into the preparation of active compound of the desired concentration and are populated with caterpillars of the diamondback moth (Plutella xylostella, resistant strain) while the leaves are still moist.
as §2

Aphis gossypii = Aphis gossypii test (cotton leaves dipped); conditions: 4 ppm
Protocol: as §1
Cotton leaves (Gossypium hirsutum) which are heavily infested by the cotton aphid (Aphis gossypii) are treated by being dipped into the preparation of active compound of the desired concentration. After the desired period of time, the kill in % is determined. 100% means that all aphids have been killed; 0% means that none of the aphids have been killed. The determined kill ratios are entered into Colby's formula (see page 39).

Myzus persicae = Myzus persicae test (cabbage leaves dipped); conditions: 20 ppm
Protocol: as §1
Cabbage leaves (Brassica oleracea) which are heavily infested by the green peach aphid (Myzus persicae) are treated by being dipped into the preparation of active compound of the desired concentration.
After the desired period of time, the kill in % is determined. 100% means that all aphids have been killed; 0% means that none of the aphids have been killed. The determined kill ratios are entered into Colby's formula (see page 39).

[3] = tested on: Phaedon cochleariae larvae; test: Phaedon cochleariae larvae test (cabbage leaves dipped)
Protocol: as §1
Cabbage leaves (Brassica oleracea) are treated by being dipped into the preparation of active compound of the desired concentration and are populated with larvae of the mustard beetle (Phaedon cochleariae) while the leaves are still moist.
After the desired period of time, the kill in % is determined. 100% means that all beetle larvae have been killed; 0% means that none of the beetle larvae have been killed. The determined kill ratios are entered into Colby's formula (see page 39).

Spodoptera exigua = Spodoptera exigua test (cabbage leaves dipped)
Protocol: as §1
Cabbage leaves (Brassica oleracea) are treated by being dipped into the preparation of active compound of the desired concentration and are populated with caterpillars of the beet army worm (Spodoptera exigua) while the leaves are still moist.
as §2

Heliothis armigera = Heliothis armigera test (soybean shoots dipped)
Protocol: as §1
Soybean shoots (Glycine max) are treated by being dipped into the preparation of active compound of the desired concentration and are populated with caterpillars of the cotton bollworm (Heliothis armigera) while the leaves are still moist.
as §2

For `N#Cc1nn(-c2c(Cl)cc(C(F)(F)F)cc2Cl)c(N)c1[S+]([O-])C(F)(F)F` (stereo not drawn) [(2-16) fipronil, fipronil, reference compound], the “Kill rate in % after 6d found” value ([1]; 0.0064 ppm) was 15%, the “Kill rate in % after 4d found” value ([2]; 0.0064 ppm) was 0% and the “Kill rate in % after 6d found” value (Aphis gossypii) was 0%.
For `CC[S+]([O-])c1c(C#N)nn(-c2c(Cl)cc(C(F)(F)F)cc2Cl)c1N` (stereo not drawn) [(2-17) ethiprole, ethiprole, reference compound], the “Kill rate in % after 1d found” value (Myzus persicae) was 50%.
`COC(=O)N(C(=O)N1COC2(C(=O)OC)Cc3cc(Cl)ccc3C2=N1)c1ccc(OC(F)(F)F)cc1` (stereo not drawn) [(2-21) indoxacarb, indoxacarb, reference compound] was tested, and the “Kill rate in % after 6d found” value ([3]; 0.032 ppm) was 10% and the “Kill rate in % after 6d found” value (Spodoptera exigua; 0.16 ppm) was 70%.
In the case of `Cc1cc(Cl)cc(C(=O)NC(C)C)c1NC(=O)c1cc(C(F)(F)F)nn1-c1ncccc1Cl` [Example I-1-9], the “Kill rate in % after 6d found” value ([3]; 0.0064 ppm) is reported as 0%, the “Kill rate in % after 6d found” value ([1]; 0.00128 ppm) is reported as 0% and the “Kill rate in % after 4d found” value ([1]; 0.16 ppm, 4 d) is reported as 0%. The “Kill rate in % after 4d found” value ([2]; 0.00128 ppm) was 0%, the “Kill rate in % after 6d found” value ([2]; 0.032 ppm, 6 d) was 10% and the “Kill rate in % after 6d found” value (Heliothis armigera; 0.0064 ppm) was 20%. The “Kill rate in % after 3d found” value (Heliothis armigera; 0.032 ppm, 3 d) was 45%, the “Kill rate in % after 6d found” value (Heliothis armigera; 0.032 ppm) was 0% and the “Kill rate in % after 6d found” value (Aphis gossypii) was 10%. For the same compound, the “Kill rate in % after 1d found” value (Myzus persicae) was 0%, the “Kill rate in % after 6d found” value (Spodoptera exigua; 0.0064 ppm) was 15% and the “Kill rate in % after 6d found” value (Spodoptera exigua; 0.032 ppm) was 10%.

Reference: patent US8735431B2, “Active compound combinations having insecticidal properties” (priority 2003, dated 2014)
